Data from paper PMC9841527 (Journal of Medicinal Chemistry, 2022).

Assays:
[1] = target: T1, G9a (Homo sapiens, UniProt Q96KQ7); experiment: Selectivity assay, G9a; assay type: biochemical; settings: compound 10 μM, 3H-SAM 1 μM
T1 sequence (Q96KQ7 1-1210): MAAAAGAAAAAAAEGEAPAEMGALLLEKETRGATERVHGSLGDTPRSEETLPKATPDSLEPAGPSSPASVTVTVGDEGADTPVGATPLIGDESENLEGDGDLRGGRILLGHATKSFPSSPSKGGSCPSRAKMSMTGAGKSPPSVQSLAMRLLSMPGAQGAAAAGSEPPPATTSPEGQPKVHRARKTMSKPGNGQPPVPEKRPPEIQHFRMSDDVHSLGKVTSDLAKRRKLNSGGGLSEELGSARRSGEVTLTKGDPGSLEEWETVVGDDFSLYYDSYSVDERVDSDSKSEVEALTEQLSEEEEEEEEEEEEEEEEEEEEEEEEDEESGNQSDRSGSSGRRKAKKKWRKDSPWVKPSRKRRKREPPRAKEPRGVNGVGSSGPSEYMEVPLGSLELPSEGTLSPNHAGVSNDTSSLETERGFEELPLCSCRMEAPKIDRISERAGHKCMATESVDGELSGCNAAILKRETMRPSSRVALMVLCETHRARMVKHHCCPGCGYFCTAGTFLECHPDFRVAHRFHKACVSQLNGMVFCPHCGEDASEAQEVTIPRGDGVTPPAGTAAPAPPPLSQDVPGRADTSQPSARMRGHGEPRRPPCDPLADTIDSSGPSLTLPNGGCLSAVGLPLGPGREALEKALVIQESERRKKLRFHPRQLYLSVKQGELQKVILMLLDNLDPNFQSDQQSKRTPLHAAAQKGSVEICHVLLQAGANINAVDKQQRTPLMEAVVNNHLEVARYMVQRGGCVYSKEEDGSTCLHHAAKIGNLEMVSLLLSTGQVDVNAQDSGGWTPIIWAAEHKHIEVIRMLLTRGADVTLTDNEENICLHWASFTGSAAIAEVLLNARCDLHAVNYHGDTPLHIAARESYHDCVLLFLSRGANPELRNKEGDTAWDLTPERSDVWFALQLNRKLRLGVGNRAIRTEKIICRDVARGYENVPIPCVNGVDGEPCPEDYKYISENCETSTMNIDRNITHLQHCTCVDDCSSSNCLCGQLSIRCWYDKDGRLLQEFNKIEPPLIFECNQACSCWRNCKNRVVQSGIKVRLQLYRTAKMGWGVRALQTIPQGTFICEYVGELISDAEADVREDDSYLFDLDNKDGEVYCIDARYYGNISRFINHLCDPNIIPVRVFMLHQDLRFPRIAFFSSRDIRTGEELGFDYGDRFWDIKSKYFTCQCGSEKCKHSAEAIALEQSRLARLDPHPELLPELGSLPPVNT

[2] = target: MettL5-Trm112 (Homo sapiens, UniProt Q9NRN9); assay type: biochemical
[3] = target: CcrM (Caulobacter vibrioides, UniProt P0CAW2); assay type: biochemical, Caulobacter crescentus
[4] = target: EZH2 complex (Homo sapiens, UniProt Q15910); experiment: Selectivity assay, EZH2 complex; assay type: biochemical; settings: compound 10 μM, 3H-SAM 1 μM
EZH2 complex, sequence (Q15910 whole entry): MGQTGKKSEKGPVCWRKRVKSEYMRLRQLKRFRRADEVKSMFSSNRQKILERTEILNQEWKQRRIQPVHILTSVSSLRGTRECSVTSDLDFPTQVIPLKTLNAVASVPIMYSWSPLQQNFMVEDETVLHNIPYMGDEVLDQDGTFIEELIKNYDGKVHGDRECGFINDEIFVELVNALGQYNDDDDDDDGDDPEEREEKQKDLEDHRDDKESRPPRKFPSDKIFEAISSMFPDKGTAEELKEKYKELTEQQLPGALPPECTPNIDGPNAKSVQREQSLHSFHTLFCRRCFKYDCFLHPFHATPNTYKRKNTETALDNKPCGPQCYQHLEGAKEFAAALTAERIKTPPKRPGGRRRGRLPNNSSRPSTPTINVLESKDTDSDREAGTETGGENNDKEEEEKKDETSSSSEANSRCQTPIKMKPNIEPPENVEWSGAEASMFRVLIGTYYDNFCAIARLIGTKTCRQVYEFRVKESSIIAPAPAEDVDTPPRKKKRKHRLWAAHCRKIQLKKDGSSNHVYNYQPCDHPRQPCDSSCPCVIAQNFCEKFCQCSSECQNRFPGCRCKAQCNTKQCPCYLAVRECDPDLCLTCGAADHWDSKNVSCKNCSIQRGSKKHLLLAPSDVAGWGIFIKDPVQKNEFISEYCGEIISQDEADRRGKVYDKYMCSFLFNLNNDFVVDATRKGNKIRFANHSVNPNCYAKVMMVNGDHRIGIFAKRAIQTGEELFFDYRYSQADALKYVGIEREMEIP
EZH2 complex, sequence (O75530 whole entry partner): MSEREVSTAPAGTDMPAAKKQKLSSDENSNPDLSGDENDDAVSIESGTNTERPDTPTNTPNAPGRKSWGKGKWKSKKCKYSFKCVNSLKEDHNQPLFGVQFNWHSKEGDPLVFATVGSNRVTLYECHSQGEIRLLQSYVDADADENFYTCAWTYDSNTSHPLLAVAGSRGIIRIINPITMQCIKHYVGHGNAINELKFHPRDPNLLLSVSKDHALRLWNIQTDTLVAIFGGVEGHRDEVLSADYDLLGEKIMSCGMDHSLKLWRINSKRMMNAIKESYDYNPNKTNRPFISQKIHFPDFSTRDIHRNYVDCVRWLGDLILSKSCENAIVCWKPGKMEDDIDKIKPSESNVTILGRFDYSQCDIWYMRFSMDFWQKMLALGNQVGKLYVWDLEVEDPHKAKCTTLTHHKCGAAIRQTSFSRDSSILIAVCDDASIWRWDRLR
EZH2 complex, sequence (Q15022 whole entry partner): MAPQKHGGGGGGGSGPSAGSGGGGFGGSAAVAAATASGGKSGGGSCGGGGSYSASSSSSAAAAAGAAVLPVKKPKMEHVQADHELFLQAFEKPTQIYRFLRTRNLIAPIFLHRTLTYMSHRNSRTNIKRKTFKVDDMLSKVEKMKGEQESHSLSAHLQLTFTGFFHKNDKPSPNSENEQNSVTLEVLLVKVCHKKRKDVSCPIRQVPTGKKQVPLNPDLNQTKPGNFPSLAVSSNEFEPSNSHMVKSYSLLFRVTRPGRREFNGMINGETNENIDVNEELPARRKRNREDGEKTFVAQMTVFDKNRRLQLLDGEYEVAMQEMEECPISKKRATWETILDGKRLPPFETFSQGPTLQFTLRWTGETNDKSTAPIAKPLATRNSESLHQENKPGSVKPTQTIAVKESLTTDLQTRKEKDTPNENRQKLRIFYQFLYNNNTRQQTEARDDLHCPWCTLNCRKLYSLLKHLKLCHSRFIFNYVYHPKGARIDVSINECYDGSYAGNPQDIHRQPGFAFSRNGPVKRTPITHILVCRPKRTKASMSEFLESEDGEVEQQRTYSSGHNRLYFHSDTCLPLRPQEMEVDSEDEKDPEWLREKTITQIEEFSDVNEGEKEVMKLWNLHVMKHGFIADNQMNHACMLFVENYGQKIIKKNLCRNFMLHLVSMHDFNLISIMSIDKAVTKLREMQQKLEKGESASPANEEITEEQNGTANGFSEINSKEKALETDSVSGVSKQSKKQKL
EZH2 complex, sequence (Q09028 whole entry partner): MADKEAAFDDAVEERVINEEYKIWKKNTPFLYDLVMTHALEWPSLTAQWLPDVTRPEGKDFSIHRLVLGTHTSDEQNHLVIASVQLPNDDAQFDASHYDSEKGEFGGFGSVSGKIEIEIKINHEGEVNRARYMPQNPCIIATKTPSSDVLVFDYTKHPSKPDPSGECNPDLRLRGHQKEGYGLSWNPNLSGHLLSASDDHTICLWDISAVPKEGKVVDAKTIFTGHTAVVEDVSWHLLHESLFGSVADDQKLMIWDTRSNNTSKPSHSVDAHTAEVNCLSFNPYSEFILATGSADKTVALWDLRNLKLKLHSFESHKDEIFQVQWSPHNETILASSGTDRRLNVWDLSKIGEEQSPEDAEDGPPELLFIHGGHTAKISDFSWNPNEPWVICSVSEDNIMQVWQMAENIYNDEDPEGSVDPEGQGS
EZH2 complex, sequence (Q6ZN18 whole entry partner): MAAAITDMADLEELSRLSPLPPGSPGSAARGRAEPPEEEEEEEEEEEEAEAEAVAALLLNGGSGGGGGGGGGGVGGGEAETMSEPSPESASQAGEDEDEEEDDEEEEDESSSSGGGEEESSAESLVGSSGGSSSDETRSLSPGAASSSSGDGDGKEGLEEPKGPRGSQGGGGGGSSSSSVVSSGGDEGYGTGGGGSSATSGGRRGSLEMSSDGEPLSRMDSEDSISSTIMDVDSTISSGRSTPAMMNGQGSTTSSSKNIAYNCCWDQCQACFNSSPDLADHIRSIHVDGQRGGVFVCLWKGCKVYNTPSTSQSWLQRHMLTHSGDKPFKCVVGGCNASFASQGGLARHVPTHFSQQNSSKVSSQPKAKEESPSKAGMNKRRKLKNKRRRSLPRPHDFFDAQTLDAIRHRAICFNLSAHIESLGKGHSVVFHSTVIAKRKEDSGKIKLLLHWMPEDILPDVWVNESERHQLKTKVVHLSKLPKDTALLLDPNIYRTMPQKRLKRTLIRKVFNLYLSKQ

[5] = target: MettL3-MettL14 (Homo sapiens, UniProt Q86U44); experiment: Selectivity assay, MettL3-MettL14; assay type: biochemical; settings: [I] = 10 μM, [SAM] = 20 μM, 5 mM NaCl, or CamA conditions
MettL3-MettL14, sequence (Q86U44 whole entry): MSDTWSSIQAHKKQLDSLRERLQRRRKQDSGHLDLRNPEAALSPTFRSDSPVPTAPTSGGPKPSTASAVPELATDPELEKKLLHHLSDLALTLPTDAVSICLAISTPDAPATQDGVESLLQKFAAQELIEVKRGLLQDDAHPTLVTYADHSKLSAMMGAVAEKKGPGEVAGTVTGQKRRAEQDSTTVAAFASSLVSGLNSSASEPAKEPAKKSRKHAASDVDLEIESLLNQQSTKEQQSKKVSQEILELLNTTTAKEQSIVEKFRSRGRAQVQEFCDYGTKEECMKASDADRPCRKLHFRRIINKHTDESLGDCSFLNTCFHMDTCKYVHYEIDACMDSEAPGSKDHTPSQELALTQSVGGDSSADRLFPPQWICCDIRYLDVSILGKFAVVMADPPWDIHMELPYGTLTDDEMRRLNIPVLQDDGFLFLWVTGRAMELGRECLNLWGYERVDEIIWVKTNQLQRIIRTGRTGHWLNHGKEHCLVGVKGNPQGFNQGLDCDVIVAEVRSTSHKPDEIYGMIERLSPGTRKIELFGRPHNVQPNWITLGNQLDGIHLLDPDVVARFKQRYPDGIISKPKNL
MettL3-MettL14, sequence (Q9HCE5 whole entry partner): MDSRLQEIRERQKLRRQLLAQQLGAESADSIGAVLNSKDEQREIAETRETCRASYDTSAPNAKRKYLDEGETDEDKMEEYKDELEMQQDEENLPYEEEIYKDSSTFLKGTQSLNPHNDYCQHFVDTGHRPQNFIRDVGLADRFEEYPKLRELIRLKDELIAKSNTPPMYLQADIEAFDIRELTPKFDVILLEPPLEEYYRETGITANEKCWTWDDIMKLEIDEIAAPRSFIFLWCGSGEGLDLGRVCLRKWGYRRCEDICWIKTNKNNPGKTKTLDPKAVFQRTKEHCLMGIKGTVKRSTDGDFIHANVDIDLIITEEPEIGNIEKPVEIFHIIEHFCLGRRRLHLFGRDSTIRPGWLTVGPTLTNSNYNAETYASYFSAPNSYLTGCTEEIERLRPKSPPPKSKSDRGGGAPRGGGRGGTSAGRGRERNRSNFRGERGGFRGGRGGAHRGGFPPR

[6] = target: T2, MettL16 (Homo sapiens, UniProt Q86W50); experiment: Selectivity assay, MettL16; assay type: biochemical; settings: [I] = 10 μM, [SAM] = 160 μM or 30 μM
T2 sequence (Q86W50 1-562): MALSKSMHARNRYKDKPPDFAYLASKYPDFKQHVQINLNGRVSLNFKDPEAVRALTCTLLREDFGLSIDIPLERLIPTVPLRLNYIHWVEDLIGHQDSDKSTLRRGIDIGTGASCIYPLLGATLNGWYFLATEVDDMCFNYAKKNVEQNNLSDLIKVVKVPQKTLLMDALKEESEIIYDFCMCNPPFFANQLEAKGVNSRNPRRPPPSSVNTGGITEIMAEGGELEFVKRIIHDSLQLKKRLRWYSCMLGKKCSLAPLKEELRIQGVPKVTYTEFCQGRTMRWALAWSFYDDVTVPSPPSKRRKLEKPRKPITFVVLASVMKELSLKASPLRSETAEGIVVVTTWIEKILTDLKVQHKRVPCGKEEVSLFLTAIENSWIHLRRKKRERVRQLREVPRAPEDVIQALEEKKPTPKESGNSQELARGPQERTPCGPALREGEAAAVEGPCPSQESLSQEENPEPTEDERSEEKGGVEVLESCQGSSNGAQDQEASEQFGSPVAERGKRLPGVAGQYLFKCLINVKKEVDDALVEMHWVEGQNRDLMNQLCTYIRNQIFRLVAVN

[7] = target: T3, A1 adenosine receptor (A1AR) (Homo sapiens, UniProt P30542); experiment: A1AR agonist radioligand binding assay; settings: compound 10 μM, [3H]CCPA 1 nM, transfected CHO cell membranes
T3 sequence (P30542 1-326): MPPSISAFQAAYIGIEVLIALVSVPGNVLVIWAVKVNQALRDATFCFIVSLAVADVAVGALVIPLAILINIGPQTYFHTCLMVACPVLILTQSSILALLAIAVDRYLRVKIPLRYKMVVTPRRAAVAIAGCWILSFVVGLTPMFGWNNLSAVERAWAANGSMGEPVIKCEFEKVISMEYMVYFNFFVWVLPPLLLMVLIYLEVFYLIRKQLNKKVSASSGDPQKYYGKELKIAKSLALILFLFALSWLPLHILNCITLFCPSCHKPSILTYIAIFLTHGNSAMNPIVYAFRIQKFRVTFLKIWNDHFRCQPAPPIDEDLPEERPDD

[8] = target: PRMT1 (Homo sapiens, UniProt Q99873); experiment: Selectivity assay, PRMT1; assay type: biochemical; settings: compound 10 μM, 3H-SAM 1 μM
PRMT1, sequence (Q99873 whole entry): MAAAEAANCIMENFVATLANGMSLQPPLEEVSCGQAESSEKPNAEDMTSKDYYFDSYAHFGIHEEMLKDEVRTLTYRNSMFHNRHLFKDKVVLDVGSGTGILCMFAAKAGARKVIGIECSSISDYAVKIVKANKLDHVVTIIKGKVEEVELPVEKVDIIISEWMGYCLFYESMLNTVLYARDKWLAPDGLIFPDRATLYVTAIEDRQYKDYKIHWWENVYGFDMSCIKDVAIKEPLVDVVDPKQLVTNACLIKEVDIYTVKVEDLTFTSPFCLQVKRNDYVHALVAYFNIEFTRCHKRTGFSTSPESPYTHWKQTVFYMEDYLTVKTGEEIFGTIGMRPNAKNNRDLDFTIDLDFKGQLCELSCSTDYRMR

[9] = target: T4, CamA (Clostridioides difficile, UniProt Q183J3); experiment: Isothermal titration calorimetry; assay type: binding; settings: from that of compound 37
T4 sequence (Q183J3 1-577): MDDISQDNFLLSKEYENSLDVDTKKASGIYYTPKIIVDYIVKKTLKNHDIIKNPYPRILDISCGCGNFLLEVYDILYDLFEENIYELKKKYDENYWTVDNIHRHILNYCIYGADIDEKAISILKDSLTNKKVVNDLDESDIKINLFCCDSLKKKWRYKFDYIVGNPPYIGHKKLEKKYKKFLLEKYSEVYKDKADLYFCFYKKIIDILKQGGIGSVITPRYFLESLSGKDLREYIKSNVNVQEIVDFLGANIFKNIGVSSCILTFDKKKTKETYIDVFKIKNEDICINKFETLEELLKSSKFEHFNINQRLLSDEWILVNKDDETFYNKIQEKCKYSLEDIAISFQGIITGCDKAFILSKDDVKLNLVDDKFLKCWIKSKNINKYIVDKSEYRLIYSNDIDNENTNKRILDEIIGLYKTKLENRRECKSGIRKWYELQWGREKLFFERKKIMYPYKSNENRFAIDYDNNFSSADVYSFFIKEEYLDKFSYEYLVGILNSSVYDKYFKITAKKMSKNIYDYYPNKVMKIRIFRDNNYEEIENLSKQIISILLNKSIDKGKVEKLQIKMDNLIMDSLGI

[10] = target: DNMT1 (Homo sapiens, UniProt P26358); experiment: Selectivity assay, DNMT1; assay type: biochemical; settings: [I] = 10 μM, [SAM] = 5.5 μM, 37 °C
[11] = target: T5, Dam (Escherichia coli, UniProt P0AEE8); assay type: biochemical
T5 sequence (P0AEE8 1-278): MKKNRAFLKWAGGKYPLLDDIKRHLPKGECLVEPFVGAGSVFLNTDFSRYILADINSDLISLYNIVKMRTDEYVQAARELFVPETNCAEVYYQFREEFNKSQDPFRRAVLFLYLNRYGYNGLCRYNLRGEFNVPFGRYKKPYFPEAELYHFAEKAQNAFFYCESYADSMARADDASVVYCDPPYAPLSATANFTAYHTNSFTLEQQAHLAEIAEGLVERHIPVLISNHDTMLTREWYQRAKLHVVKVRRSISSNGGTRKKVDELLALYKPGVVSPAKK

[12] = target: PCIF1 (Homo sapiens, UniProt Q9H4Z3); assay type: biochemical
PCIF1, sequence (Q9H4Z3 whole entry): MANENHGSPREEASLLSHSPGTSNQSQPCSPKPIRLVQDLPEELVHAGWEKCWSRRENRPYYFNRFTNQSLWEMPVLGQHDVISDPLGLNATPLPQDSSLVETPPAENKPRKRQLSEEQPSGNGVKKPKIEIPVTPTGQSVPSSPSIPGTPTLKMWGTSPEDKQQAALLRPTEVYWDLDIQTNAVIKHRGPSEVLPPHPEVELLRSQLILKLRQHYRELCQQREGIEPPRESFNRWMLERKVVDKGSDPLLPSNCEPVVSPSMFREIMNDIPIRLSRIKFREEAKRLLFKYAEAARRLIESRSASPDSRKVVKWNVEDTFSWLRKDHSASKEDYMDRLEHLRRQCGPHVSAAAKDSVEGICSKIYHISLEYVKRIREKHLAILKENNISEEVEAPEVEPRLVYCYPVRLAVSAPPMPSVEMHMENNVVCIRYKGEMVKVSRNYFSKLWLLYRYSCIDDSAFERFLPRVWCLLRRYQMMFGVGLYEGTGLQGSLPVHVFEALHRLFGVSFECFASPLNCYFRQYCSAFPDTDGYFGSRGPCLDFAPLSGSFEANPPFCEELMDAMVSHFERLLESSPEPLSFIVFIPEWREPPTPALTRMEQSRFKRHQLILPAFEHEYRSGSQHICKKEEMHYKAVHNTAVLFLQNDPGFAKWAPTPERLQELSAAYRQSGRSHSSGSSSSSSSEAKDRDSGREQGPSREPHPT

[13] = target: Dnmt3a-Dnmt3L (Mus musculus, UniProt O88508); assay type: biochemical
[14] = target: DOT1L (Homo sapiens, UniProt Q8TEK3); experiment: Selectivity assay, DOT1L; assay type: biochemical; settings: compound 10 μM, 3H-SAM 1 μM

CC(C)(C)OC(=O)N1CCC(CCNc2ncnc3c2ncn3[C@@H]2O[C@H](CO)[C@@H](O)[C@H]2O)CC1 [Compound 38, tert-Butyl-4-(2-((9-((2R,3R,4S,5R)-3,4-dihydroxy-5-(hydroxymethyl)tetrahydrofuran-2-yl)-9H-purin-6-yl)amino)ethyl)piperidine-1-carboxylate]
inhibition of G9a [1]: none of them showed any significant inhibition | inhibition of MettL5-Trm112 [2]: none of them showed any significant inhibition | inhibition of CcrM [3]: none of them showed any significant inhibition | inhibition of EZH2 complex [4]: none of them showed any significant inhibition | inhibition of MettL3-MettL14 [5]: none of them showed any significant inhibition | inhibition of MettL16 [6]: none of them showed any significant inhibition | inhibition of control radioligand specific binding, A1AR [7]: minimal inhibition of specific binding | inhibition of PRMT1 [8]: none of them showed any significant inhibition | KD improved, fold [9]: ~8 × | inhibition of DNMT1 [10]: none of them showed any significant inhibition | inhibition of Dam [11]: none of them showed any significant inhibition | inhibition of PCIF1 [12]: none of them showed any significant inhibition | inhibition of Dnmt3a-Dnmt3L [13]: none of them showed any significant inhibition | inhibition of DOT1L [14]: none of them showed any significant inhibition
